Patent publication US20200375975A1, “Treatment of Renal Cell Carcinoma with Lenvatinib and Everolimus” (Eisai R&D Management Co., Ltd., priority 2016, published 2020)

Assays:
[1] = system: patients with unresectable advanced or metastatic renal cell carcinoma (RCC); assay: Same Phase 2 trial: PFS and ORR by retrospective independent blinded review of scans; assay type: in vivo, human; conditions: combo 18 mg+5 mg; everolimus 10 mg
[2] = system: patients with unresectable advanced or metastatic renal cell carcinoma (RCC); assay: Same Phase 2 trial: laboratory abnormalities, Grade 3-4; assay type: in vivo, human; conditions: combo (head prints 10 mg+5 mg), LENVIMA 24 mg, everolimus 10 mg
Text: Table 4 provides a summary of laboratory abnormalities observed in the patients in the RCC trial described in Example 1.

[3] = system: patients with unresectable advanced or metastatic renal cell carcinoma (RCC); assay: Same Phase 2 trial: adverse reactions (CTCAE grades), once daily dosing;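 further: adverse events are any unwanted sign, symptom, abnormal lab finding or disease occurring in time with treatment, whether or not drug-related, and CTCAE grade expresses their severity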
Description: The CTCAE provides a grading (severity) scale for each adverse event term. […] The CTCAE grade refers to the severity of the AE.
The safety data described below are derived from the trial described in Example 1, which randomized (1:1:1) patients with unresectable advanced or metastatic renal cell carcinoma (RCC) to LENVIMA® 18 mg+everolimus 5 mg (n=51), LENVIMA® 24 mg (n=52), or everolimus 10 mg (n=50) once daily.

[4] = system: patients with unresectable advanced or metastatic renal cell carcinoma (RCC); assay: Phase 2 trial in RCC after one prior VEGF-targeted treatment: efficacy (PFS, OS, ORR), investigator assessment, RECIST 1.1; LENVIMA 18 mg+everolimus 5 mg vs LENVIMA 24 mg vs everolimus 10 mg; conditions: combo 18 mg+5 mg
Description: A multicenter, randomized, open-label, trial was conducted to determine the safety and efficacy of lenvatinib administered alone or in combination with everolimus in subjects with unresectable advanced or metastatic renal cell carcinoma (RCC). The trial consisted of a Phase 1b dose finding and a Phase 2 portion. The Phase 2 portion enrolled a total of 153 patients with unresectable advanced or metastatic RCC following one prior VEGF-targeted treatment. Patients were required, inter alia, to have histological confirmation of predominant clear cell RCC, radiographic evidence of disease progression according to Response Evaluation Criteria in Solid Tumors Version 1.1 (RECIST), one prior VEGF-targeted therapy, and Eastern Cooperative Oncology Group (ECOG) Performance Status of 0 or 1.
Patients were randomly allocated to one of 3 arms: (i) LENVIMA® (mesylate salt of lenvatinib) 18 mg+everolimus 5 mg, (ii) LENVIMA® 24 mg, or (iii) everolimus 10 mg, using a 1:1:1 ratio. Patients were stratified by hemoglobin level (≤13 g/dL vs. >13 g/dL for males and ≤11.5 g/dL vs >11.5 g/dL for females) and corrected serum calcium (≥10 mg/dL vs. <10 mg/dL).
The primary efficacy outcome measure, based on investigator assessed tumor response, was progression-free survival (PFS) of the LENVIMA® plus everolimus arm vs. the everolimus arm and of the LENVIMA® arm vs. the everolimus arm. Other efficacy outcome measures included investigator-assessed overall survival (OS) and objective response rate (ORR).
Tumor assessments were evaluated according to RECIST.

[5] = cited from earlier work
[6] = LENVIMA 24 mg, everolimus 10 mg
[7] = combo 18 mg+5 mg, LENVIMA 24 mg, everolimus 10 mg
[8] = everolimus 10 mg, cutoff Jul. 31, 2015
[9] = everolimus 10 mg, cutoff Jun. 13, 2014
[10] = combo 18 mg+5 mg, LENVIMA 24 mg

SMILES: CO[C@H]1C[C@@H]2CC[C@@H](C)[C@@](O)(O2)C(=O)C(=O)N2CCCC[C@H]2C(=O)O[C@H]([C@H](C)C[C@@H]2CC[C@@H](OCCO)[C@H](OC)C2)CC(=O)[C@H](C)/C=C(\C)[C@@H](O)[C@@H](OC)C(=O)[C@H](C)C[C@H](C)/C=C/C=C/C=C/1C [Everolimus, (1R,9S,12S,15R,16E,18R,19R,21R,23 S,24E,26E,28E,30S,32S,35R)-1,18-dihydroxy-12-{(1R)-2-[(1 S,3R,4R)-4-(2-hydroxyethoxy)-3-methoxycyclohexyl]-1-methylethyl}-19,30-dimethoxy-15,17,21,23,29,35-hexamethyl-11,36-dioxa-4-aza-tricyclo[30.3.1.0^4,9]hexatriaconta-16,24,26,28-tetraene-2,3,10,14,20-pentaone]
- ORR, independent blinded review [1]: no subject had an objective response
- Alkaline phosphatase increased, Grades 3-4 [2]: 0%
- Aspartate aminotransferase (AST) increased, Grades 3-4 [2]: 0%
- Hemoglobin decreased, Grades 3-4 [2]: 16%
- Hyperglycemia, Grades 3-4 [2]: 16%
- Hyperkalemia, Grades 3-4 [2]: 2%
- Hypocalcemia, Grades 3-4 [2]: 2%
- Hypokalemia, Grades 3-4 [2]: 2%
- Hyponatremia, Grades 3-4 [2]: 6%
- Hypophosphatemia, Grades 3-4 [2]: 6%
- Lipase increased, Grades 3-4 [2]: 12%
- Lymphocyte count decreased, Grades 3-4 [2]: 20%
- Platelet count decreased, Grades 3-4 [2]: 0%
- Aspartate aminotransferase (AST) increased, Grades 3-4 ([2]; listed as everolimus): no patients
- arterial thromboembolic events, Grade 3 or greater [3, 6]: 4%
- Adverse reactions led to dose reductions or interruption, patients [3, 7]: 54%
- Arthralgia/myalgia, All Grades [3, 7]: 32%
- Arthralgia/myalgia, Grades 3-4 [3, 7]: 0%
- Confusional state, All Grades [3, 7]: 0%
- Confusional state, Grades 3-4 [3, 7]: 0%
- Constipation, All Grades [3, 7]: 18%
- Constipation, Grades 3-4 [3, 7]: 0%
- Cough, All Grades [3, 7]: 30%
- Cough, Grades 3-4 [3, 7]: 0%
- Decreased appetite, All Grades [3, 7]: 18%
- Decreased appetite, Grades 3-4 [3, 7]: 0%
- Decreased weight, All Grades [3, 7]: 8%
- Decreased weight, Grades 3-4 [3, 7]: 0%
- Dehydration, All Grades [3, 7]: 2%
- Dehydration, Grades 3-4 [3, 7]: 0%
- Diarrhea, All Grades [3, 7]: 34%
- Diarrhea, Grades 3-4 [3, 7]: 2%
- Discontinuation of treatment due to hemorrhagic events, patients [3, 7]: no discontinuations
- Dyspepsia, All Grades [3, 7]: 12%
- Dyspepsia, Grades 3-4 [3, 7]: 0%
- Dysphonia, All Grades [3, 7]: 4%
- Dysphonia, Grades 3-4 [3, 7]: 0%
- Dyspnea, All Grades [3, 7]: 28%
- Dyspnea, Grades 3-4 [3, 7]: 8%
- Epistaxis, All Grades [3, 7]: 24%
- Epistaxis, Grades 3-4 [3, 7]: 0%
- Events of renal impairment [3, 7]: 12%
- Fatigue, All Grades [3, 7]: 38%
- Gastrointestinal disorders and Abdominal pain, All Grades [3, 7]: 8%
- Gastrointestinal disorders and Abdominal pain, Grades 3-4 [3, 7]: 0%
- Grade 3 or greater diarrhea, patients [3, 7]: 2%
- Grade 3 or greater renal failure or impairment, incidence [3, 7]: 2%
- Headache, Grades 3-4 [3, 7]: 2%
- Hypertension, All Grades [3, 7]: 10%
- Hypertension, Grades 3-4 [3, 7]: 2%
- Insomnia, All Grades [3, 7]: 2%
- Insomnia, Grades 3-4 [3, 7]: 0%
- Musculoskeletal chest pain, All Grades [3, 7]: 4%
- Musculoskeletal chest pain, Grades 3-4 [3, 7]: 0%
- Nausea, All Grades [3, 7]: 16%
- Nausea, Grades 3-4 [3, 7]: 0%
- Oral inflammation, All Grades [3, 7]: 50%
- Oral inflammation, Grades 3-4 [3, 7]: 4%
- Oral pain, All Grades [3, 7]: 4%
- Oral pain, Grades 3-4 [3, 7]: 0%
- Proteinuria, All Grades [3, 7]: 14%
- Proteinuria, Grades 3-4 (text: Grade 3 or greater) [3, 7]: 2%
- Pruritus, All Grades [3, 7]: 14%
- Pruritus, Grades 3-4 [3, 7]: 0%
- Pyrexia, All Grades [3, 7]: 10%
- QT/QTc interval prolongation, patients [3, 7]: No reports
- Rash, All Grades [3, 7]: 30%
- Rash, Grades 3-4 [3, 7]: 0%
- Renal failure events, All Grades [3, 7]: 2%
- Renal failure events, Grades 3-4 [3, 7]: 2%
- Vomiting, Grades 3-4 [3, 7]: 0%
- arterial thromboembolic events, patients [3, 7]: 6%
- decreased ejection fraction and cardiac failure, Grade 3 [3, 7]: 2%
- decreased ejection fraction and cardiac failure, patients [3, 7]: 4%
- epistaxis, Grade 1 [3, 7]: 20%
- gastrointestinal perforation or fistula, patients [3, 7]: no patients
- hemorrhagic events, Grade 3 or greater [3, 7]: 2%
- hemorrhagic events, patients [3, 7]: 28%
- hypothyroidism, patients [3, 7]: 2%
- patients discontinued treatment for adverse reactions [3, 7]: 6 (12%) n (%)
- elevation of TSH level post baseline in patients with a normal TSH at baseline ([3]; combo 18 mg+5 mg, everolimus 10 mg): none
- epistaxis, Grade 2 ([3]; everolimus 10 mg): 4%
- Number of complete responses (%) ([4]; everolimus 10 mg): 0 n (%)
- Number of partial responses (%) ([4]; everolimus 10 mg): 3 (6) n (%)
- Number of progressive disease (%) ([4]; everolimus 10 mg): 12 (24) n (%)
- Number of stable disease (%) ([4]; everolimus 10 mg): 31 (62) n (%)
- Overall Survival (updated analysis): Number of deaths, n (%) [4, 8]: 37 (74) n (%)
- Overall Survival: Number of deaths (%) [4, 9]: 26 (52) n (%)

SMILES: COc1cc2nccc(Oc3ccc(NC(=O)NC4CC4)c(Cl)c3)c2cc1C(N)=O [LENVIMA ®, 4-[3-chloro-4-(N′-cyclopropylureido)phenoxy]-7-methoxyquinoline-6-carboxamide methanesulfonate]
- solubility in ethanol (dehydrated) ([5]; ethanol (dehydrated)): practically insoluble
- solubility in water ([5]; water): slightly soluble
- Alkaline phosphatase increased, Grades 3-4 [2]: 0%
- Aspartate aminotransferase (AST) increased, Grades 3-4 [2]: 4%
- Hemoglobin decreased, Grades 3-4 [2]: 4%
- Hyperglycemia, Grades 3-4 [2]: 8%
- Hyperkalemia, Grades 3-4 [2]: 2%
- Hypokalemia, Grades 3-4 [2]: 8%
- Hyponatremia, Grades 3-4 [2]: 6%
- Hypophosphatemia, Grades 3-4 [2]: 4%
- Lipase increased, Grades 3-4 [2]: 10%
- Lymphocyte count decreased, Grades 3-4 [2]: 4%
- Platelet count decreased, Grades 3-4 [2]: 2%
- Hypocalcemia, Grades 3-4 ([2]; listed as LENVIMA®, methanesulfonate): no patients
- arterial thromboembolic events, Grade 3 or greater [3, 6]: 8%
- QT/QTc interval prolongation, Grade 3 or greater events [3, 10]: No Grade 3 or greater events
- fatal hemorrhage cases [3, 10]: one case of fatal intracranial hemorrhage
- Arthralgia/myalgia, All Grades [3, 7]: 56%
- Arthralgia/myalgia, Grades 3-4 [3, 7]: 4%
- Confusional state, All Grades [3, 7]: 4%
- Confusional state, Grades 3-4 [3, 7]: 2%
- Cough, All Grades [3, 7]: 17%
- Cough, Grades 3-4 [3, 7]: 2%
- Decreased appetite, All Grades [3, 7]: 58%
- Decreased appetite, Grades 3-4 [3, 7]: 4%
- Decreased weight, All Grades [3, 7]: 50%
- Decreased weight, Grades 3-4 [3, 7]: 6%
- Dehydration, All Grades [3, 7]: 2%
- Dehydration, Grades 3-4 [3, 7]: 0%
- Dysphonia, All Grades [3, 7]: 37%
- Dysphonia, Grades 3-4 [3, 7]: 0%
- Dyspnea, All Grades [3, 7]: 25%
- Dyspnea, Grades 3-4 [3, 7]: 2%
- Epistaxis, All Grades [3, 7]: 8%
- Epistaxis, Grades 3-4 [3, 7]: 0%
- Fatigue, All Grades [3, 7]: 52%
- Headache, Grades 3-4 [3, 7]: 6%
- Insomnia, All Grades [3, 7]: 15%
- Insomnia, Grades 3-4 [3, 7]: 0%
- Musculoskeletal chest pain, All Grades [3, 7]: 15%
- Musculoskeletal chest pain, Grades 3-4 [3, 7]: 4%
- Pruritus, All Grades [3, 7]: 6%
- Pruritus, Grades 3-4 [3, 7]: 0%
- Pyrexia, All Grades [3, 7]: 10%
- QT/QTc interval prolongation, patients [3, 7]: 6%
- Rash, All Grades [3, 7]: 15%
- Rash, Grades 3-4 [3, 7]: 0%
- Renal failure events, All Grades [3, 7]: 10%
- Renal failure events, Grades 3-4 [3, 7]: 6%
- Vomiting, Grades 3-4 [3, 7]: 4%
- Duration of response, months, median (95% CI) ([4]; everolimus 10 mg): 7.5 (3.8, NE) months
- Number of complete responses (%) ([4]; everolimus 10 mg): 0 n (%)
- Number of partial responses (%) ([4]; everolimus 10 mg): 14 (27) n (%)
- Number of progressive disease (%) ([4]; everolimus 10 mg): 3 (6) n (%)
- Number of stable disease (%) ([4]; everolimus 10 mg): 27 (52) n (%)
- Median OS in months (95% CI), updated analysis [4, 8]: 19.1 (13.6, 26.2) months
- Overall Survival (updated analysis): Number of deaths, n (%) [4, 8]: 34 (65) n (%)
- Median OS in months (95% CI) [4, 9]: 18.4 (13.3, NE) months
- Median PFS in months (95% CI) [4, 9]: 7.4 (5.6, 10.2) months
- Overall Survival: Number of deaths (%) [4, 9]: 26 (50) n (%)
- PFS compared with the everolimus arm (in words) ([4]; vs everolimus 10 mg): improvement
